The results in this text go back to patent US9302999B2, “Substituted triazoles as herbicides” (E. I. DU PONT DE NEMOURS AND COMPANY, priority 2012, dated 2016).

SMILES strings stand for the structures.

Format in all cases: in vivo
The test system of assay [1] is Russian thistle (Salsola iberica). As to the kind of experiment: Test D pre-/postemergence: Russian thistle. Put shortly:
(§1)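 Pre- and postemergence herbicide screen. Soil for pre: silt loam; post medium: peat moss, vermiculite, wetting agent, starter nutrients. Plant stage at post: 1- to 4-leaf. Readout: visual % control, 14–21 days.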

The test system of assay [2] is ryegrass, Italian (Italian ryegrass, Lolium multiflorum). Briefly: Test D pre-/postemergence: ryegrass, Italian. Put shortly: as §1
For assay [3], the system named is galium (catchweed bedstraw, Galium aparine). Briefly: Test D pre-/postemergence: galium. Put shortly: as §1
For assay [4], the system named is barnyardgrass (Echinochloa crus-galli). Briefly: Test C flooded paddy test: barnyardgrass. Conditions: scale 0 to 100 (0 no effect, 100 complete control). Put shortly:
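Plants at 2-leaf stage in pots flooded 3 cm above soil; compounds applied directly into the paddy water, depth maintained. Visual rating against controls after 13–15 days in greenhouse, scale 0 (no effect) to 100 (complete control).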

Assay [5] has as its system blackgrass (Alopecurus myosuroides). Briefly: Test D pre-/postemergence: blackgrass. Put shortly:
as §1

In assay [6] the test system is radish, wild (wild radish, Raphanus raphanistrum). As to the kind of experiment: Test D pre-/postemergence: radish, wild. Put shortly:
as §1

Assay [7] relates to velvetleaf (Abutilon theophrasti). As to the kind of experiment: Test F pre-/postemergence: velvetleaf. Conditions: Preemergence. The source says:
(§2) Seeds of plant species selected from corn (Zea mays), soybean (Glycine max), velvetleaf (Abutilon theophrasti), lambsquarters (Chenopodium album), poinsettia, wild (wild poinsettia, Euphorbia heterophylla), pigweed, palmer (palmer pigweed, Amaranthus palmeri), waterhemp (common waterhemp, Amaranthus rudis), surinam grass (Brachiaria decumbens), crabgrass, Brazil (Brazilian crabgrass, Digitaria horizontalis), panicum, fall (fall panicum Panicum dichotomiflorum), crabgrass, large (large crabgrass, Digitaria sanguinalis), foxtail, giant (giant foxtail, Setaria faberii), foxtail, green (green foxtail Setaria viridis), goosegrass (Eleusine indica), ragweed (common ragweed, Ambrosia elatior), barnyardgrass (Echinochloa crus-galli), sandbur (southern sandbur, Cenchrus echinatus), arrowleaf sida (Sida rhombifolia), ryegrass, Italian (Italian ryegrass, Lolium multiflorum), dayflower, VA (Virginia (VA) dayflower, Commelina virginica), field bindweed (Convolvulus arvensis), cocklebur (common cocklebur, Xanthium strumarium), morningglory (Ipomoea coccinea), nightshade (eastern black nightshade, Solanum ptycanthum), kochia (Kochia scoparia), nutsedge, yellow (yellow nutsedge, Cyperus esculentus), johnsongrass (Sorghum halepense), smartweed (ladysthumb smartweed, Polygonum persicaria), and beggarticks (hairy beggarticks, Bidens pilosa), were planted into a silt loam soil and treated preemergence with test chemicals formulated in a non-phytotoxic solvent mixture which included a surfactant. At the same time, plants selected from these crop and weed species and also pigweed (Amaranthus retroflexus), waterhemp_RES1 (ALS/Triazine resistant common waterhemp, Amaranthus rudis) and waterhemp_RES2 (ALS/HPPD resistant common waterhemp, Amaranthus rudis) were planted in pots containing a planting medium comprising spaghnum peat moss, vermiculite, wetting agent and starter nutrients treated with postemergence applications of some of the test chemicals formulated in the same manner. Plants ranged in height from 2 to 18 cm for postemergence treatments (1- to 4-leaf stage).
(§3) Treated plants and controls were maintained in a greenhouse for 14 to 21 days, after which time all species were compared to controls and visually evaluated. Plant response ratings, summarized in Table E, are based on a scale of 0 to 100 where 0 is no effect and 100 is complete control. A dash (-) response means no test result.

In assay [8] the test system is foxtail, giant (giant foxtail, Setaria faberii). As to the kind of experiment: Test F pre-/postemergence: foxtail, giant. Conditions: Preemergence.
Text: as §2, §3

[9] abbreviates: Postemergence, 31 g ai/ha, scale 0 to 100 (0 no effect, 100 complete control).
Where [10] appears, read: Postemergence, 62 g ai/ha, scale 0 to 100 (0 no effect, 100 complete control).
Setting [11] is: Postemergence, 125 g ai/ha, scale 0 to 100, 0 no effect, 100 complete control.
Setting [12] is: Postemergence, 250 g ai/ha, scale 0 to 100 (0 no effect, 100 complete control).
Where [13] appears, read: Postemergence, 16 g ai/ha, scale 0 to 100.
Setting [14] is: Preemergence, 16 g ai/ha, scale 0 to 100, 0 no effect, 100 complete control.
Setting [15] is: Preemergence, 31 g ai/ha, scale 0 to 100, 0 no effect, 100 complete control.
The mark [16] stands for this setting: Preemergence, 62 g ai/ha, scale 0 to 100.
The mark [17] stands for this setting: Preemergence, 125 g ai/ha, scale 0 to 100.
Where [18] appears, read: Preemergence, 250 g ai/ha, scale 0 to 100.
Setting [19] is: 16 g ai/ha, scale 0 to 100, 0 no effect, 100 complete control.
Setting [20] is: 31 g ai/ha, scale 0 to 100, 0 no effect, 100 complete control.

Turning to `Cc1nn(-c2ccc(C(F)(F)F)cc2)nc1Oc1ccnc(C(F)(F)F)c1` [Compound 120], the “Plant response rating: Russian Thistle” value in assay [1] (setting [9]) worked out at 95; in assay [1] (setting [10]), 98; in assay [1] (setting [11]), 100; in assay [1] (setting [12]), 100. Moreover, the “Plant response rating, Russian Thistle” value in assay [1] (setting [13]) was 95; in assay [1] (setting [14]) it was 100; in assay [1] (setting [15]), 100; in assay [1] (setting [16]) it was 100; in assay [1] (setting [17]) it was 100; in assay [1] (setting [18]), 100. The “Plant response rating: Ryegrass, Italian” value in assay [2] (setting [9]) was found to be 5; in assay [2] (setting [10]) it was 10; in assay [2] (setting [11]) it was 15; in assay [2] (setting [12]) it was 30. Moreover, the “Plant response rating, Ryegrass, Italian” value came out at 5 in assay [2] (setting [13]); 0 in assay [2] (setting [14]); 5 in assay [2] (setting [15]); 40 in assay [2] (setting [16]); 80 in assay [2] (setting [17]); 100 in assay [2] (setting [18]). In addition, the “Plant response rating: Galium” value in assay [3] (setting [9]) is 60; in assay [3] (setting [10]) it was 70; in assay [3] (setting [11]), 98; in assay [3] (setting [12]) it was 100. The “Plant response rating, Galium” value in assay [3] (setting [13]) turned out to be 50; in assay [3] (setting [14]) it was 0; in assay [3] (setting [15]), 15; in assay [3] (setting [16]), 65; in assay [3] (setting [17]) it was 100; in assay [3] (setting [18]) it was 100. Also, the “Plant response rating, Barnyardgrass” value in assay [4] (Flood (flooded paddy test), 125 g ai/ha, visual rating after 13 to 15 days) was 80; in assay [4] (Flood (flooded paddy test), 250 g ai/ha, visual rating after 13 to 15 days) it was 80; in assay [4] (Flood, 62 g ai/ha), 65. For the same compound, the “Plant response rating: Blackgrass” value in assay [5] (setting [9]) is reported as 10; in assay [5] (setting [10]), 30; in assay [5] (setting [11]), 75; in assay [5] (setting [12]) it was 85. Further, the “Plant response rating, Blackgrass” value in assay [5] (setting [13]) was 5; in assay [5] (setting [14]), 0; in assay [5] (setting [15]) it was 80; in assay [5] (setting [16]) it was 98; in assay [5] (setting [17]) it was 100; in assay [5] (setting [18]), 100. Further, the “Plant response rating: Radish, Wild” value in assay [6] (setting [9]) came out at 100; in assay [6] (setting [10]) it was 90; in assay [6] (setting [11]), 100; in assay [6] (setting [12]), 100. The “Plant response rating, Radish, Wild” value in assay [6] (setting [13]) was found to be 100; in assay [6] (setting [14]), 0; in assay [6] (setting [16]), 20; in assay [6] (setting [17]) it was 90; in assay [6] (setting [18]) it was 100.
Regarding `COc1nn(-c2cccc(F)c2)nc1Cc1ccnc(C(F)(F)F)c1` [Compound 139], the “Plant response rating, Velvetleaf” value in assay [7] (setting [19]) is on record as 0; in assay [7] (setting [20]), 0; in assay [7] (125 g ai/ha, scale 0 to 100) it was 0; in assay [7] (250 g ai/ha, scale 0 to 100), 65. For the same compound, the “Plant response rating, Foxtail, Giant” value in assay [8] (setting [19]) came out at 0; in assay [8] (setting [20]) it was 40; in assay [8] (62 g ai/ha, scale 0 to 100), 85; in assay [8] (125 g ai/ha, scale 0 to 100) it was 98; in assay [8] (250 g ai/ha, scale 0 to 100), 100.
Regarding `Cc1nn(-c2ccc(F)cc2F)nc1Oc1ccnc(C(F)(F)F)c1` [Compound 146], the “Plant response rating, Velvetleaf” value was found to be 0 in assay [7] (setting [19]); 0 in assay [7] (setting [20]); 0 in assay [7] (125 g ai/ha, scale 0 to 100); 25 in assay [7] (250 g ai/ha, scale 0 to 100). Also, the “Plant response rating, Foxtail, Giant” value is listed as 20 in assay [8] (setting [19]); 20 in assay [8] (setting [20]); 90 in assay [8] (62 g ai/ha, scale 0 to 100); 98 in assay [8] (125 g ai/ha, scale 0 to 100); 100 in assay [8] (250 g ai/ha, scale 0 to 100).
`CCc1nn(-c2ccc(F)cc2)nc1Cc1ccnc(C(F)(F)F)c1` [Compound 154]: the “Plant response rating, Velvetleaf” value in assay [7] (setting [19]) was found to be 0; in assay [7] (setting [20]), 20; in assay [7] (125 g ai/ha, scale 0 to 100), 40; in assay [7] (250 g ai/ha, scale 0 to 100), 100. Moreover, the “Plant response rating, Foxtail, Giant” value in assay [8] (setting [19]) was 5; in assay [8] (setting [20]) it was 65; in assay [8] (62 g ai/ha, scale 0 to 100), 100; in assay [8] (125 g ai/ha, scale 0 to 100), 100; in assay [8] (250 g ai/ha, scale 0 to 100) it was 100.
As for `CCc1nn(-c2ccc(C(F)(F)F)cc2)nc1Oc1ccnc(C(F)(F)F)c1` [Compound 169], the “Plant response rating, Velvetleaf” value in assay [7] (setting [19]) is 0; in assay [7] (setting [20]) it was 0; in assay [7] (125 g ai/ha, scale 0 to 100) it was 60; in assay [7] (250 g ai/ha, scale 0 to 100), 100. The “Plant response rating, Foxtail, Giant” value in assay [8] (setting [19]) turned out to be 70; in assay [8] (setting [20]), 100; in assay [8] (62 g ai/ha, scale 0 to 100), 100; in assay [8] (125 g ai/ha, scale 0 to 100), 100; in assay [8] (250 g ai/ha, scale 0 to 100) it was 100.
For `CCc1nn(-c2ccc(F)c(F)c2)nc1Oc1ccnc(C(F)(F)F)c1` [Compound 171], the “Plant response rating, Velvetleaf” value in assay [7] (setting [19]) was 0; in assay [7] (setting [20]), 0; in assay [7] (125 g ai/ha, scale 0 to 100), 15; in assay [7] (250 g ai/ha, scale 0 to 100), 50. For the same compound, the “Plant response rating, Foxtail, Giant” value in assay [8] (setting [19]) was 40; in assay [8] (setting [20]), 60; in assay [8] (62 g ai/ha, scale 0 to 100) it was 100; in assay [8] (125 g ai/ha, scale 0 to 100), 100; in assay [8] (250 g ai/ha, scale 0 to 100) it was 100.
As to `CCCc1nn(-c2ccc(F)c(F)c2)nc1Oc1ccnc(C(F)(F)F)c1` [Compound 172], the “Plant response rating, Velvetleaf” value in assay [7] (setting [20]) amounted to 0; in assay [7] (125 g ai/ha, scale 0 to 100) it was 80; in assay [7] (250 g ai/ha, scale 0 to 100), 100. Further, the “Plant response rating, Foxtail, Giant” value in assay [8] (setting [20]) was found to be 100; in assay [8] (125 g ai/ha, scale 0 to 100), 100; in assay [8] (250 g ai/ha, scale 0 to 100), 100.
